The text below walks through data of US11066379B2 (THE TEXAS A&M UNIVERSITY SYSTEM, priority 2018, dated 2021).

For data set [1], the target named is T1, active human CypA protein (Homo sapiens, UniProt P62937).
T1 construct: Active human CypA full-length protein was from Abcam; purchased Abcam
As to the kind of experiment: Binding to immobilized CypA by surface plasmon resonance (SPR). Particulars: for immunosuppressive activity (SAR profile, FIG. 2) / affinity for CypA (association curves, KD): in words; for immunosuppressive activity (SAR profile, FIG. 2): CypA binding / IL-2 inhibition; for affinity for CypA (association curves, KD) / fold increase in KD toward CypA compared to gracilin A: SPR; for affinity for CypA (association curves, KD): various concentrations. Here is the method: Sensor surface activation and ligand immobilization were performed by using HBS-EP as running buffer at a flow rate of 5 μL/min and 25° C. CM5 sensor chips were used as surface where Cyp A or D was immobilized as ligand. The CM5 chip is a glass slide coated with a thin layer of gold with a matrix of carboxymethylated dextran covalently attached. The CM5 chip was activated using an amine coupling kit. […] After activation, the ligand, 100 μg/mL of active human CypA protein dissolved in sodium acetate 10 mM at pH 4.5 was added to be immobilized over a CM5 sensor chip. Finally ethanolamine-HCl was injected to deactivate the remaining active esters and to avoid non-specific binding. […] Once analytes were tested and interaction was observed, individual binding curves were analyzed by determining the kinetic constants of analytes-CypA binding, namely, the observed rate constant (Kobs), the association rate constant (Kass), the dissociation rate constant (Kdiss), and the kinetic equilibrium dissociation constant (KD). At equilibrium, by definition, […]. The pseudo-first order association rate constants Kobs (s^-1) were determined for each compound concentration by using the 1:1 Langmuir association model of BiaEvaluation software (BiaCore, Uppsala, Sweden). Then a representation of Kobs against the corresponding concentration of each compound was done. […] From the equation of these representations, Kass, M^-1 s^-1, gradient of the plot, and […]^-1, intercept of the plot was obtained. Within these two values, the kinetic equilibrium dissociation constant KD for each analyte-CypA binding was obtained. The duration of the sample injection was 2 min at 10 μL/min flow rate. Next, dissociation of bound molecules in HBS-EP buffer flow was studied. The bound drugs were removed from the chip surface before the next injection by adding 1 M Glycine-HCl at pH 2.5 for 1 min. The association phase was used to quantify the compound-CypA or D interactions. All experiments were performed four times.
For orientation: In SPR one partner is held on a chip, and binding of the other changes the refractive index at the surface.

The test system of another data set is human T lymphocytes. As to the kind of experiment: Viability of human T lymphocytes (MTT assay, 48 h). It is filed as cell-based. Particulars: for cell toxicity to T-cells: 0.1 μM, in words. From the text:
(§1) The MTT (3-[4,5-dimethylthiazol-2-yl]-2,5-diphenyltetrazoliumbromide) assay was used to determine the cytotoxicity of gracilin derivatives in T lymphocytes (Burton, J. D. Methods Mol. Med., 2005, 110, 69-78) and SH-SY5Y cells and the protective effect of these compounds against H2O2 insult in neuroblastoma cells as previously described (Leiros, M., Alonso, E., Sanchez, J. A., Rateb, M. E., Ebel, R., Houssen, W. E., Jaspars, M., Alfonso, A. and Botana, L. M. ACS Chem. Neurosci., 2014, S, 71-80). Human T lymphocytes were cultured in 24 well plates at the concentration of 2.5×10^6 cells/mL and exposed to different compound concentrations (0.01, 0.1, 1 and 10 μM) added to the culture medium. Human T cells were maintained in the presence of the pure compound at 37° C. in humidified 5% CO2/95% air atmosphere for 48 h.
Saponin was used as cellular death control and its absorbance was subtracted from the other data. After the incubation period with compounds, assay was performed. First cells were centrifuged (1500 rpm, 5 min, 4° C.). The pellets were resuspended in saline solution with MTT (250 μg/mL) and then incubated at 37° C. during 30 min. After washing off excess MTT twice with saline solution, cells were disaggregated with H2O and sonicated for 1 min and the absorbance of the colored formazan salt was measured at 595 nm in a spectrophotometer plate reader. All experiments were performed three times.
On the technique in general: Formazan colour is commonly taken as a measure of viable cells.

The test system of data set [2] is Interleukin-2 (IL-2) production in human T lymphocytes. As to the kind of experiment: Interleukin-2 release in Con A-stimulated human T lymphocytes (ELISA). Format: cell-based. Here is the method: Then, cells were stimulated with Concanavalin A (Con A) at 50 μg/mL for 48 h to induce IL-2 release. The amount of IL-2 released to the culture medium was evaluated using Human IL-2 ELISA kit. Experiments were carried out four times.
A general note: In an ELISA, binding on a coated surface is turned into a signal by an enzyme label.

In data set [3] the test system is SH-SY5Y cells. As to the kind of experiment: Cellular toxicity in SH-SY5Y cells (MTT, 24 h). Particulars: SH-SY5Y, 24 h incubation; read-out: IC50 (cellular toxicity). It is filed as cell-based.
Excerpt: as §1
(§2) SH-SY5Y cells were seeded in 96-well plates at a density of 2.5×10^5 cells/mL and allowed to adhere for 24 h. At first, cells were treated only with compounds at concentrations ranging from 10-0.01 μM for 24 h to determine their possible cytotoxic effects. Experiments were carried out three times. For neuroprotective experiments, cells were treated with compounds at non-toxic concentrations (1 μM→1 nM) and 150 μM H2O2 for 6 h. Briefly, cells were washed three times with saline solution and 200 μL of MTT (500 μg/mL) dissolved in saline buffer were added to each well. Following 1 h of incubation at 37° C., the cells were disaggregated with sodium dodecyl sulphate at 5%.
Absorbance of formazan crystals was measured at 595 nm with a spectrophotometer plate reader. Saponin was used as death control and its absorbance was subtracted from the other data. All experiments were performed four times.

Data set [4] concerns SH-SY5Y cells. As to the kind of experiment: Intracellular ROS levels (carboxy-H2DCFDA) after H2O2. Particulars: 150 μM H2O2 co-treatment 6 h. It is filed as cell-based, human. As to the method:
Intracellular levels of reactive oxygen species (ROS) were determined with carboxy-H2DCFDA (5-(and-6)-carboxy-2′,7′-dichlorodihydrofluorescein diacetate). This dye diffuses through the cellular membrane and is converted by cellular esterases to carboxy-H2DCFH (non-fluorescent). When carboxy-H2DCFH is oxidized by ROS, it becomes fluorescent (Halliwell, B. and Whiteman, M. Br. J. Pharmacol., 2004, 142, 231-255). Cells were seeded at a density of 2.5×10^5 cells/mL in 96-well plates and allowed to attach for 24 h. Following treatment with compounds at various concentrations (1 μM→1 nM) and 150 μM H2O2 for 6 h, SH-SY5Y cells were washed twice with serum-free culture medium. Then, carboxy-H2DCFDA 20 μM dissolved in serum-free culture medium was added to each well and the cells were incubated for 1 h at 37° C. After this incubation, the medium with the fluorescent dye was replaced with PBS and the plate was incubated for 30 min at 37° C. Fluorescence was read at 527 nm, with an excitation wavelength of 495 nm. All experiments were performed four times.

In data set [5] the test system is SH-SY5Y cells. As to the kind of experiment: Neuroprotection against H2O2 toxicity, cell viability by MTT. Format: cell-based, human. Particulars: 150 μM H2O2 co-treatment 6 h; 0.01, 0.1 and 1 μM. As to the method: as §2, with “5%. Absorbance of formazan crystals was measured at 595 nm with a spectrophotometer plate reader. Saponin was used as death control and its absorbance was subtracted from the other data. All experiments were performed four times.” for “5%.”

One may read the IC50 as the midpoint of a concentration-inhibition curve.

T1 sequence (P62937 whole entry): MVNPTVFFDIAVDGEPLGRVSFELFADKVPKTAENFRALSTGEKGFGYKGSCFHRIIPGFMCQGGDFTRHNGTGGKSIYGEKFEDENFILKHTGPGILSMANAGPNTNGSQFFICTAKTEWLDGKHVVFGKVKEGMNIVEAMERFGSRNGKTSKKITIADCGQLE

As for `CC1(C2=C[C@@H]3COC(=O)[C@@H]3CC2)CCCCC1` [Compound 26, (3aS,7aR)-5-(1-methylcyclohexyl)-3a,6,7,7a-tetrahydroisobenzofuran-1(3H)-one], in data set [1], the “immunosuppressive activity (SAR profile, FIG. 2)” value is “inactive”.
For `CC(=O)OC1OC(OC(C)=O)[C@@H]2CCC=C[C@H]12` (stereo partly drawn) [Compound 18, (3aR,7aS)-1,3,3a,4,5,7a-hexahydroisobenzofuran-1,3-diyl diacetate], in the data set with human T lymphocytes, the “cell toxicity to T-cells” value was “did not show signs of cell toxicity”. Further, the “affinity for CypA (association curves, KD)” value (“affinity for CypA” below) in data set [1] is given as “no affinity”. For the same compound, the “Inhibition of IL-2 production” value in data set [2] (in words) is recorded as “did not inhibit IL-2 production”.
As to “(1S,3R,3aS,7aR)-5-((S)-1,3,3-trimethylcyclohexyl)-1,3,3a,4,7,7a-hexahydroisoben-zofuran-1,3-diyl diacetate [Compound 23a]”, the “decrease in cell viability” value in the data set on human T lymphocytes is reported as ~10%. For the same compound, in data set [1], the “fold increase in KD toward CypA compared to gracilin A” value is reported as ~1000 fold. The IC50 in the data set with SH-SY5Y cells [3] was found to be 1400 nM. Moreover, in the data set on SH-SY5Y cells [4], the ROS levels entry is recorded as “diminishing ROS at two or three concentrations”. Further, the “protection of cell viability against H2O2 insult” value with SH-SY5Y cells [5] is reported as “protected cells against H2O2 insult at almost all concentrations”.
As to `CC(=O)O[C@H]1O[C@@H](OC(C)=O)[C@@H]2CCC(=O)C[C@H]12` [Compound 17, (1S,3R,3aS,7aR)-5-oxooctahydroisobenzofuran-1,3-diyl diacetate], in the data set with human T lymphocytes, the “cell toxicity to T-cells” value was “did not show signs of cell toxicity”. In addition, in data set [1], the “affinity for CypA” value is “no affinity”. Further, the “Inhibition of IL-2 production” value in data set [2] (in words) is given as “did not inhibit IL-2 production”.
As for `CC(=O)OC1CCC(OC(C)=O)O1` (mixture of isomers) [(±)-9, cis- and trans-2,5-tetrahydrofuran-2,5-diyl diacetate], in the data set on human T lymphocytes, the “cell toxicity to T-cells” value is “did not show signs of cell toxicity”. For the same compound, the “affinity for CypA” value in data set [1] is “no affinity”. In addition, the “Inhibition of IL-2 production” value in data set [2] (in words) is on record as “did not inhibit IL-2 production”.
As for `CC(=O)O[C@@H]1OC[C@H]2CC(=O)CC[C@H]21` [Compound 24, (1S,3aS,7aR)-5-oxooctahydroisobenzofuran-1-yl acetate], the “immunosuppressive activity (SAR profile, FIG. 2)” value in data set [1] was “inactive”.
On to “(0R,3S,3aR,7aS)-6-((R)-1,3,3-trimethyl-cyclohexyl)-1,3,3a,4,5,7a-hexahydroisobenzofuran-1,3-diyl diacetate [Compound 23d]”, for which the “impact on T-cell viability” value with human T lymphocytes is reported as “no impact on cell viability”. Moreover, the “fold increase in KD toward CypA compared to gracilin A” value in data set [1] was ~1000 fold. Besides, in the data set with SH-SY5Y cells [3], the half-maximal inhibitory concentration (IC50) amounted to 1400 nM. The “Inhibition of IL-2 production” value in data set [2] (2 h pre-treatment at non-toxic concentration, Con A 50 μg/mL 48 h) worked out at 46%.
